Test results taken from the NIST ThermoML archive (doi:10.1021/je500502a).
Numbers after ± are expanded uncertainties.

Experiments:
[1] = 101.33 kPa, Liquid; for electrical conductivity: PICO digital conductivity meter; for speed of sound: Sing-around technique in a fixed-path interferometer; for mass density: Vibrating tube method
[2] = refractive index (Na D-line) (dimensionless); details: 101.33 kPa, Liquid, Standard Abbe refractometry

CCn1cc[n+](C)c1.O=S(=O)([N-]S(=O)(=O)C(F)(F)F)C(F)(F)F
Details | electrical conductivity, [1] [S/m] | mass density, [1] [kg/m3] | refractive index, [2] | speed of sound, [1] [m/s]
293.15 K | 0.854 ± 0.014 | 1521.47 ± 2.1 | 1.42425 ± 0.0006 | 1251.2 ± 2.1
298.15 K | 0.947 ± 0.015 | 1516.39 ± 2.1 | 1.42286 ± 0.0006 | 1240.3 ± 2.1
303.15 K | 1.07 ± 0.017 | 1511.32 ± 2.1 | 1.42142 ± 0.0006 | 1229.4 ± 2.1
308.15 K | 1.19 ± 0.019 | 1506.27 ± 2.1 | 1.41997 ± 0.0006 | 1218.5 ± 2.1
313.15 K | 1.33 ± 0.021 | 1501.23 ± 2 | 1.4185 ± 0.0006 | 1207.8 ± 2.1
318.15 K | 1.48 ± 0.024 | 1496.21 ± 2 | 1.41705 ± 0.00061 | 1197.2 ± 2.1
323.15 K | 1.64 ± 0.026 | 1491.21 ± 2 | 1.41555 ± 0.00061 | 1186.7 ± 2.1
